Data taken from PubChem BioAssay AID1259407 (Chemical Carcinogenesis Research Information System (CCRIS), 2018).
Active and inactive are the calls of the source. The rule behind the calls is not given here.

System: CCRIS mutagenicity, Ames/micronucleus/aberration tests
Assay: CCRIS mutagenicity studies
[1] = Test System: AMES SALMONELLA TYPHIMURIUM, Strain/Indicator: TA100, Metabolic Activation: NONE, Method: PREINCUBATION
[2] = Test System: AMES SALMONELLA TYPHIMURIUM, Strain/Indicator: TA98, Metabolic Activation: NONE, Method: PREINCUBATION
[3] = Test System: AMES SALMONELLA TYPHIMURIUM, Strain/Indicator: TA98, Metabolic Activation: NONE, Method: STANDARD PLATE
[4] = Test System: AMES SALMONELLA TYPHIMURIUM, Strain/Indicator: TA100, Metabolic Activation: NONE, Method: STANDARD PLATE
[5] = Test System: AMES SALMONELLA TYPHIMURIUM, Strain/Indicator: TA1535, Metabolic Activation: NONE, Method: PREINCUBATION

Measured: mutagenic call

Nc1ccc2ncsc2c1
inactive: [1] inactive; negative | Test System: AMES SALMONELLA TYPHIMURIUM, Strain/Indicator: TA100, Metabolic Activation: RAT LIVER S-9, PHENOBARBITAL AND 5,6-BENZOFLAVONE, Method: PREINCUBATION inactive; negative | Test System: AMES SALMONELLA TYPHIMURIUM, Strain/Indicator: YG1029, Metabolic Activation: NONE, Method: PREINCUBATION inactive; negative
active: Test System: AMES SALMONELLA TYPHIMURIUM, Strain/Indicator: YG1029, Metabolic Activation: RAT LIVER S-9, PHENOBARBITAL AND 5,6-BENZOFLAVONE, Method: PREINCUBATION active; positive

Nc1ccc2c(c1)Cc1cc([N+](=O)[O-])ccc1-2
active: Test System: AMES SALMONELLA TYPHIMURIUM, Strain/Indicator: TA98, Metabolic Activation: HAMSTER, LIVER, S-9, 3-METHYLCHOLANTHRENE, Method: STANDARD PLATE active; positive | Test System: AMES SALMONELLA TYPHIMURIUM, Strain/Indicator: TA98, Metabolic Activation: HAMSTER, LIVER, S-9, Method: STANDARD PLATE active; positive

Oc1c(Cl)c(Cl)c(Cl)c(Cl)c1Cl
active: Test System: AMES SALMONELLA TYPHIMURIUM, Strain/Indicator: TA98, Metabolic Activation: RAT, LIVER, S-9, AROCLOR 1254, Method: STANDARD PLATE active; positive
inactive: End Point: IN VITRO CHROMOSOMAL ABERRATIONS, Test System: CHINESE HAMSTER OVARY CELLS, Metabolic Activation: NONE inactive; negative | Test System: AMES SALMONELLA TYPHIMURIUM, Strain/Indicator: TA97A, Metabolic Activation: NONE, Method: STANDARD PLATE inactive; negative | Test System: AMES SALMONELLA TYPHIMURIUM, Strain/Indicator: TA97A, Metabolic Activation: RAT LIVER S-9, AROCLOR 1254, Method: STANDARD PLATE inactive; negative | Test System: AMES SALMONELLA TYPHIMURIUM, Strain/Indicator: TA98, Metabolic Activation: HAMSTER, LIVER, S-9, AROCLOR 1254, Method: PREINCUBATION inactive; negative | [2] inactive; negative | [3] inactive; negative | Test System: AMES SALMONELLA TYPHIMURIUM, Strain/Indicator: TA98, Metabolic Activation: RAT LIVER S-9, AROCLOR 1254, Method: STANDARD PLATE inactive; negative | Test System: AMES SALMONELLA TYPHIMURIUM, Strain/Indicator: TA98, Metabolic Activation: RAT, LIVER, S-9, AROCLOR 1254, Method: PREINCUBATION inactive; negative | Test System: AMES SALMONELLA TYPHIMURIUM, Strain/Indicator: TA100, Metabolic Activation: HAMSTER, LIVER, S-9, AROCLOR 1254, Method: PREINCUBATION inactive; negative | [1] inactive; negative | [4] inactive; negative | Test System: AMES SALMONELLA TYPHIMURIUM, Strain/Indicator: TA100, Metabolic Activation: RAT LIVER S-9, AROCLOR 1254, Method: STANDARD PLATE inactive; negative | Test System: AMES SALMONELLA TYPHIMURIUM, Strain/Indicator: TA100, Metabolic Activation: RAT, LIVER, S-9, AROCLOR 1254, Method: PREINCUBATION inactive; negative | Test System: AMES SALMONELLA TYPHIMURIUM, Strain/Indicator: TA1535, Metabolic Activation: HAMSTER, LIVER, S-9, AROCLOR 1254, Method: PREINCUBATION inactive; negative | [5] inactive; negative | Test System: AMES SALMONELLA TYPHIMURIUM, Strain/Indicator: TA1535, Metabolic Activation: RAT, LIVER, S-9, AROCLOR 1254, Method: PREINCUBATION inactive; negative | Test System: AMES SALMONELLA TYPHIMURIUM, Strain/Indicator: TA1537, Metabolic Activation: HAMSTER, LIVER, S-9, AROCLOR 1254, Method: PREINCUBATION inactive; negative | Test System: AMES SALMONELLA TYPHIMURIUM, Strain/Indicator: TA1537, Metabolic Activation: NONE, Method: PREINCUBATION inactive; negative | Test System: AMES SALMONELLA TYPHIMURIUM, Strain/Indicator: TA1537, Metabolic Activation: RAT, LIVER, S-9, AROCLOR 1254, Method: PREINCUBATION inactive; negative | Test System: CHINESE HAMSTER V-79, Strain/Indicator: V-79/6-THIOGUANINE, Metabolic Activation: NONE, Method: STANDARD PLATE inactive; negative | Test System: CHINESE HAMSTER V-79, Strain/Indicator: V-79/6-THIOGUANINE, Metabolic Activation: PRIMARY RAT HEPATOCYTES, Method: STANDARD PLATE inactive; negative

Cc1ccc(C)o1
inactive: Test System: AMES SALMONELLA TYPHIMURIUM, Strain/Indicator: TA97, Metabolic Activation: HAMSTER, LIVER, S-9, AROCLOR 1254 (10%), Method: PREINCUBATION inactive; negative | Test System: AMES SALMONELLA TYPHIMURIUM, Strain/Indicator: TA97, Metabolic Activation: HAMSTER, LIVER, S-9, AROCLOR 1254 (30%), Method: PREINCUBATION inactive; negative | Test System: AMES SALMONELLA TYPHIMURIUM, Strain/Indicator: TA97, Metabolic Activation: NONE, Method: PREINCUBATION inactive; negative | Test System: AMES SALMONELLA TYPHIMURIUM, Strain/Indicator: TA97, Metabolic Activation: RAT, LIVER, S-9, AROCLOR 1254 (10%), Method: PREINCUBATION inactive; negative | Test System: AMES SALMONELLA TYPHIMURIUM, Strain/Indicator: TA97, Metabolic Activation: RAT, LIVER, S-9, AROCLOR 1254 (30%), Method: PREINCUBATION inactive; negative | Test System: AMES SALMONELLA TYPHIMURIUM, Strain/Indicator: TA98, Metabolic Activation: HAMSTER, LIVER, S-9, AROCLOR 1254 (10%), Method: PREINCUBATION inactive; negative | Test System: AMES SALMONELLA TYPHIMURIUM, Strain/Indicator: TA98, Metabolic Activation: HAMSTER, LIVER, S-9, AROCLOR 1254 (30%), Method: PREINCUBATION inactive; negative | [2] inactive; negative | [3] inactive; negative | Test System: AMES SALMONELLA TYPHIMURIUM, Strain/Indicator: TA98, Metabolic Activation: RAT, LIVER, S-9, AROCLOR 1254 (10%), Method: PREINCUBATION inactive; negative | Test System: AMES SALMONELLA TYPHIMURIUM, Strain/Indicator: TA98, Metabolic Activation: RAT, LIVER, S-9, AROCLOR 1254 (30%), Method: PREINCUBATION inactive; negative | Test System: AMES SALMONELLA TYPHIMURIUM, Strain/Indicator: TA98, Metabolic Activation: S-9, Method: STANDARD PLATE inactive; negative | Test System: AMES SALMONELLA TYPHIMURIUM, Strain/Indicator: TA100, Metabolic Activation: HAMSTER, LIVER, S-9, AROCLOR 1254 (10%), Method: PREINCUBATION inactive; negative | Test System: AMES SALMONELLA TYPHIMURIUM, Strain/Indicator: TA100, Metabolic Activation: HAMSTER, LIVER, S-9, AROCLOR 1254 (30%), Method: PREINCUBATION inactive; negative | [1] inactive; negative | [4] inactive; negative | Test System: AMES SALMONELLA TYPHIMURIUM, Strain/Indicator: TA100, Metabolic Activation: RAT, LIVER, S-9, AROCLOR 1254 (10%), Method: PREINCUBATION inactive; negative | Test System: AMES SALMONELLA TYPHIMURIUM, Strain/Indicator: TA100, Metabolic Activation: RAT, LIVER, S-9, AROCLOR 1254 (30%), Method: PREINCUBATION inactive; negative | Test System: AMES SALMONELLA TYPHIMURIUM, Strain/Indicator: TA100, Metabolic Activation: S-9, Method: STANDARD PLATE inactive; negative | Test System: AMES SALMONELLA TYPHIMURIUM, Strain/Indicator: TA1535, Metabolic Activation: HAMSTER, LIVER, S-9, AROCLOR 1254 (10%), Method: PREINCUBATION inactive; negative | Test System: AMES SALMONELLA TYPHIMURIUM, Strain/Indicator: TA1535, Metabolic Activation: HAMSTER, LIVER, S-9, AROCLOR 1254 (30%), Method: PREINCUBATION inactive; negative | [5] inactive; negative | Test System: AMES SALMONELLA TYPHIMURIUM, Strain/Indicator: TA1535, Metabolic Activation: RAT, LIVER, S-9, AROCLOR 1254 (10%), Method: PREINCUBATION inactive; negative | Test System: AMES SALMONELLA TYPHIMURIUM, Strain/Indicator: TA1535, Metabolic Activation: RAT, LIVER, S-9, AROCLOR 1254 (30%), Method: PREINCUBATION inactive; negative
